1 molecule from US8372832B2 (priority 2006, dated 2013) can be followed below.

This assay addresses α7-subtype of nicotinic receptors (Rattus norvegicus, UniProt Q05941). Nature of the assay: biochemical. In kind it is binding.

α7-subtype of nicotinic receptors, sequence (Q05941 23-502): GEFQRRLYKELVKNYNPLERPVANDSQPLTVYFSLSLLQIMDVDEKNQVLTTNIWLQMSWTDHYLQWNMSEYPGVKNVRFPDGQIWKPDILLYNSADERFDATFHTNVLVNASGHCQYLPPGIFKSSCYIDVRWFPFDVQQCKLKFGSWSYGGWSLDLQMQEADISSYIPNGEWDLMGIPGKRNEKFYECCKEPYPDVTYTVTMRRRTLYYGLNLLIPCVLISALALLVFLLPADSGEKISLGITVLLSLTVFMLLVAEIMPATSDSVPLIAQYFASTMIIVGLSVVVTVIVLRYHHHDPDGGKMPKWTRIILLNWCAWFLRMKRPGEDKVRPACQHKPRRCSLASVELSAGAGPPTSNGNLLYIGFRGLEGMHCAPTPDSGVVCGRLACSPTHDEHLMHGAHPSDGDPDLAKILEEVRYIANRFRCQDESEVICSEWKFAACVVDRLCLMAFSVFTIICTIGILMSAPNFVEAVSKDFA

By IC50 is commonly meant the midpoint of a concentration-inhibition curve. Higher therefore signals weaker potency. Take `Brc1ccc(-c2nnc(N3CCN4CCC3CC4)o2)o1` [Compound A1, 4-[5-(5-Bromo-furan-2-yl)-[1,3,4]oxadiazol-2-yl]-1,4-diaza-bicyclo[3.2.2]nonane]: the IC50 was below 10 nM.
